Measurements published in article PMC4013123 (PLoS ONE, 2014).

Experiments:
[1] = target: WT MPH (methyl parathion hydrolase) (Ochrobactrum sp. M231, UniProt B2Z3X1)
From the text: steady-state kinetics of purified enzyme (standard assay by reference) on WT MPH (methyl parathion hydrolase)

D10-MPH = D10-MPH (Ochrobactrum sp. M231, UniProt B2Z3X1)
From the text: steady-state kinetics of purified enzyme (standard assay by reference) on D10-MPH

Chain of WT MPH (methyl parathion hydrolase) (B2Z3X1 entry or part of it): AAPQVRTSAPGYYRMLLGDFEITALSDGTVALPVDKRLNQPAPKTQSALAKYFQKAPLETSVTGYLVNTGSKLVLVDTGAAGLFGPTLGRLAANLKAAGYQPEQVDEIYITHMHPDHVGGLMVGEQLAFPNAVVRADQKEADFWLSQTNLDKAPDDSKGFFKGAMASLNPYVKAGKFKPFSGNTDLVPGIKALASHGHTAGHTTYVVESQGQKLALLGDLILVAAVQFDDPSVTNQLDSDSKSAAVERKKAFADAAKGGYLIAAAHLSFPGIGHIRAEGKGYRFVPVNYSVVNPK
Chain of D10-MPH (B2Z3X1 entry or part of it): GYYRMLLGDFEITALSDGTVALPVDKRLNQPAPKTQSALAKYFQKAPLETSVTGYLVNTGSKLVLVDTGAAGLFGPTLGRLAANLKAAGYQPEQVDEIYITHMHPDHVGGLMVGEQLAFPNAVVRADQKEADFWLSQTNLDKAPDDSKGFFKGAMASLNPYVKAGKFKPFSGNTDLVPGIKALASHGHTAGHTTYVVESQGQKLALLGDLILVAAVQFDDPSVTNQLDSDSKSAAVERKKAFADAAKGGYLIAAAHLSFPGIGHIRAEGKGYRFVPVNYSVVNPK

Compound: COP(=S)(OC)Oc1ccc([N+](=O)[O-])cc1 [methyl parathion]
- Km [1]: 73.2 ± 4.7 µM
- Km (D10-MPH): 86.9 ± 4.01 µM
